According to patent US20240299553A1, “INDOCARBOCYANINE LIPID DERIVATIVES FOR IN VIVO CARGO DELIVERY” (priority 2021, published 2024):

Assays:
[1] = Ex vivo fluorescence imaging of excised tumors and livers; format: in vivo, mice
Description: Tumors and livers were placed in a 24-well plate and scanned as described above. To match the intensity of the channels, the same liposomes used for injection were diluted (1:10), dotted on a 0.45 μm nitrocellulose membrane, and scanned together with the samples. Mean fluorescence was determined from 8-bit TIFF images using Fiji software by drawing a region of interest around the tumors and using the “Measure” function to determine mean gray values. Such measurement is independent of the organ cross-section area. The mean gray values of non-injected tumors were subtracted from the measurements. For plasma fluorescence profile, plasma collected at different time points was serially diluted, dotted on a nitrocellulose membrane, scanned as above, and the mean fluorescence of dots was plotted versus time with Prism.

[2] = tested on: syngeneic intracranial GL261 glioma; assay: Confocal microscopy of brain slices of GL261 glioma mice after i.v. dual-labeled liposomes; format: in vivo; details: 48 h post-injection, EPC/DSPE-PEG2000 liposomes, 0.2% DiI and 0.2% Cy5-DSPE
Description: 4T1 cell line was purchased from the ATCC and verified using a sequencing core. GL261 cells were obtained from the National Cancer Institute (NCI), and CT2A cells were a gift from Dr. Tom Seyfried (Boston College). LY2 cells were from Dr. Sana Karam, University of Colorado Anschutz Medical campus. Cells were grown at 37° C. in RPMI 1640 medium containing 10% heat-inactivated fetal bovine serum, 10 mM HEPES, 100 U/ml penicillin, and […] streptomycin (all from Corning Inc. New York, NY, USA). BALB/c mice were bred in-house. Mice of 8-10 weeks of age (females) were implanted with 0.5×10^6 cells into the mammary fat pad (4T1) or subcutaneously in the jaw region (LY2) and used for experiments 1 week later when tumors reached ˜200-300 mm^3. […]
Nikon Eclipse AR1HD inverted confocal microscope with 405 nm, 488 nm, 561 nm, and 640 nm excitation lasers and corresponding emission filters was used. […] For quantification, multiple random image areas from different slices of the tumor (both periphery and center) were acquired at 512×512 resolution. Images were quantified with Fiji using customized macros. Briefly, 8-bit gray image stacks were thresholded for fluorescence in the Cy3 and Cy5 channels and the percentages of binary (positive) areas were calculated using the “Measure” function. […]

[3] = Incubation of liposomes in liver homogenates, fluorescence ratio and TLC; format: in vitro ADME, BALB/c mice; details: 24 h and 48 h incubation
Description: Liposomes were incubated at 2 mM in 80% mouse serum, PBS or 1% Tween/PBS for different times at 37° C. Following incubation, the samples were dotted on a nitrocellulose membrane and scanned at Cy3 and Cy5 wavelengths. Alternatively, to measure the release in serum, the samples were diluted after incubation 10-fold in PBS and ultracentrifuged at 80,000 rpm for 30 min, 4° C. using TLA-100.3 rotor of Beckman Optima ultracentrifuge. The supernatant in serum, liposomes in whole serum, and liposomes in PBS were dotted and scanned at Cy3 and Cy5 wavelengths with a Bio-Rad camera imager using Cy3 and Cy5 filters. The mean fluorescence of the dots was determined and used to calculate the percentage of release in serum. To measure the effect of tissue on DiI/Cy5 fluorescence ratio, livers from BALB/c mice were homogenized for 5 min in PBS (1:2 weight: volume ratio) using BioSpec Mini BeadBeater-16 tissue homogenizer with 1-2 zirconium beads added per tube. […]
For extraction using a modified Bligh-Dyer method, 50-100 mg tissue was homogenized as described above, 10 parts of chloroform/methanol (2:1) were added to the homogenate (considering that tissue weight is 1 part), and the samples were mixed at 1400 rpm for 2 h at room temperature on Eppendorf Thermomixer. […] The percentage of the injected DiI and Cy5 in the extract was calculated from the standard curve and divided by tissue weight. […]

CCCCCCCCCCCCCCCCCC(=O)OC[C@H](COP(=O)(O)OCCNC(=O)CCCCCN1C(=CC=CC=CC2=[N+](C)c3ccccc3C2(C)C)C(C)(C)c2ccccc21)OC(=O)CCCCCCCCCCCCCCCCC [Cy5-DSPE]
fluorescence in liver images over time ([1]; livers, later time points versus 1 h): decrease | fluorescence in tumor images over time ([1]; tumors, 1 h, 24 h, 48 h post-injection): plateaued at 24 h and dropped at 48 h | accumulation and spreading in glioma [2]: almost complete absence | TLC of extracts of liver homogenates [3]: appearance of degradation products
